The text below walks through data of patent publication US20070049593A1 (priority 2004, published 2007).

This experiment addresses T1, HCV polymerase (Hepatitis C virus genotype 1b, UniProt P26663).
T1 construct: a region encoding NS5B (J Virol 1991 March, 65(3), 1105-13, 544 amino acids after deletion of 47 amino acids on the C-terminal); 6xHis (C); made in house; host or cells: Escherichia coli
As to the kind of experiment: biochemical. The arrangement: species or system HCV BK strain. Put shortly: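 His-tagged NS5B (BK strain, 47-aa C-terminal deletion, E. coli-expressed) at 0.5 μg/ml copied 5 μg/ml run-off RNA bearing the HCV 3′ UTR with 2 μM UTP plus [3H]UTP, 50 μM ATP/GTP, in pH 7.5 Tris with 5 mM MgCl2, 25 °C, 90 min. TCA-precipitated RNA was counted and IC50 calculated.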

Where a name gives a salt, the structure may show the parent alone. Some results are limits rather than exact numbers.

T1 sequence (P26663 2420-2963): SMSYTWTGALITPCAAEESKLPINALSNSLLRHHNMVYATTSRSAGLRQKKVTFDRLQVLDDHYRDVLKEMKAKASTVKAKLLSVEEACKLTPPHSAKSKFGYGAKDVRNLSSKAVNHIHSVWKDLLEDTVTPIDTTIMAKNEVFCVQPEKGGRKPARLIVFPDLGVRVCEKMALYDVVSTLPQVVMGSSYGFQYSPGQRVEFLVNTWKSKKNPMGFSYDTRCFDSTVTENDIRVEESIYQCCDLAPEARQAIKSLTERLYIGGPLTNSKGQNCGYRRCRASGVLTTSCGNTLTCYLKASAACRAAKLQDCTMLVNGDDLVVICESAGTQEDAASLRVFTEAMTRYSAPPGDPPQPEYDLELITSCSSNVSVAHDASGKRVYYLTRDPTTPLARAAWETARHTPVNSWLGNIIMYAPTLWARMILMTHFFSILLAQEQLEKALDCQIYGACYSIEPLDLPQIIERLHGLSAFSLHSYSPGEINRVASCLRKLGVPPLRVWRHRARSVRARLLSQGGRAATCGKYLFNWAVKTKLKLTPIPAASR

The compound `CN(C)CCN1CCn2c(c(C3CCCCC3)c3ccc(C(=O)O)cc32)-c2ccc(OCc3ccncc3)cc21` [Example 1-565, 13-cyclohexyl-5-(2-dimethylaminoethyl)-3-(pyridin-4-ylmethoxy)-6,7-dihydro-5H-benzo[5,6][1,4]diazepino[7,1-a]indole-10-carboxylic acid trihydrochloride] returned an IC50 below 100 nM. The value for `O=C(O)c1ccc2c(C3CCCCC3)c3n(c2c1)CCN(CC(=O)N1CCCCCCCC1)c1ccccc1-3` [Example 1-132, 5-[2-(azonan-1-yl)-2-oxoethyl]-13-cyclohexyl-6,7-dihydro-5H-benzo[5,6][1,4]diazepino[7,1-a]indole-10-carboxylic acid] was below 100 nM.

As to `COc1ccc2c(c1)OCCn1c-2c(C2CCCCC2)c2ccc(C(=O)O)nc21` [Example 7-9, 12-cyclohexyl-3-methoxy-6,7-dihydro-5-oxa-7a,8-diazadibenzo[a,e]azulene-9-carboxylic acid], the half-maximal inhibitory concentration (IC50) is below 100 nM.

In turn, `O=C(O)c1ccc2c(C3CCCCC3)c3n(c2c1)CCN(CCC1CCCCN1)c1ccccc1-3` (centres unmarked) [Example 1-177, 13-cyclohexyl-5-[2-(piperidin-2-yl)ethyl]-6,7-dihydro-5H-benzo[5,6][1,4]diazepino[7,1-a]indole-10-carboxylic acid dihydrochloride] gave a concentration for half-maximal inhibition (IC50) below 100 nM. As for `COCC1CCCN(CCN2CCn3c(c(C4CCCCC4)c4ccc(C(=O)O)cc43)-c3ccccc32)C1` (centres unmarked) [Example 1-200, 13-cyclohexyl-5-[2-(3-methoxymethylpiperidin-1-yl)ethyl]-6,7-dihydro-5H-benzo[5,6][1,4]diazepino[7,1-a]indole-10-carboxylic acid dihydrochloride], the IC50 was below 100 nM.

Compound `COc1ccc2c(c1)OCCn1c-2c(C2CCCCC2)c2ccc(C(=O)NC(C)(C)c3ccc(CC(N)C(=O)O)cc3)cc21` (centres unmarked) [Example 2-444, 2-amino-3-(4-{1-[(12-cyclohexyl-3-methoxy-6,7-dihydro-5-oxa-7a-azadibenzo[a,e]azulene-9-carbonyl)amino]-1-methylethyl}phenyl)propionic acid] had an IC50 below 100 nM. To `COc1ccc2c(c1)OCCn1c-2c(C2CCCCC2)c2ccc(C(=O)N[C@@H](Cc3ccc(O)cc3)C(=O)NCCN(C)C)cc21` [Example 2-389, N—[(S)-1-(2-dimethylaminoethylcarbamoyl)-2-(4-hydroxyphenyl)ethyl]-12-cyclohexyl-3-methoxy-6,7-dihydro-5-oxa-7a-azadibenzo[a,e]azulene-9-carboxamide] belongs below 100 nM; to `O=C(O)c1ccc2c(C3CCCCC3)c3n(c2c1)CCN(CCN1CCCCC1)c1cc(F)ccc1-3` [Example 1-116, 13-cyclohexyl-3-fluoro-5-[2-(piperidin-1-yl)ethyl]-6,7-dihydro-5H-benzo[5,6][1,4]diazepino[7,1-a]indole-10-carboxylic acid dihydrochloride], below 100 nM. The value for `CN1CCCC(CCN2CCn3c(c(C4CCCCC4)c4ccc(C(=O)O)cc43)-c3ccccc32)C1` (centres unmarked) [Example 1-201, 13-cyclohexyl-5-[2-(1-methylpiperidin-3-yl)ethyl]-6,7-dihydro-5H-benzo[5,6][1,4]diazepino[7,1-a]indole-10-carboxylic acid dihydrochloride] was below 100 nM; that for `CC(C)(NC(=O)c1ccc2c(C3CCCCC3)c3n(c2c1)CCOc1ccccc1-3)C(=O)N1CCN(CCO)CC1` [Example 2-304, N-{2-[4-(2-hydroxyethyl)piperazin-1-yl]-1,1-dimethyl-2-oxoethyl}-12-cyclohexyl-6,7-dihydro-5-oxa-7a-azadibenzo[a,e]azulene-9-carboxamide] was below 100 nM. For the compound `O=C(O)c1ccc2c(C3CCCCC3)c3n(c2c1)CCN(CCN1CCSCC1)c1ccccc1-3` [Example 1-9, 13-cyclohexyl-5-[2-(thiomorpholin-4-yl)ethyl]-6,7-dihydro-5H-benzo[5,6][1,4]diazepino[7,1-a]indole-10-carboxylic acid dihydrochloride], the IC50 is below 100 nM.

A word on the IC50: it is the midpoint of a concentration-inhibition curve.
